# Columns and labels:
# Format in all cases: biochemical
# MKP1 = target: T1, MKP1 (Homo sapiens, UniProt P28562); test: In vitro PTPase assay, GST/MKP1; settings: for inhibition of MKP1: section VII comparison
# T1 construct: made in house; host or cells: E. coli DH5a
# T1 sequence (P28562 13-367 limits assumed): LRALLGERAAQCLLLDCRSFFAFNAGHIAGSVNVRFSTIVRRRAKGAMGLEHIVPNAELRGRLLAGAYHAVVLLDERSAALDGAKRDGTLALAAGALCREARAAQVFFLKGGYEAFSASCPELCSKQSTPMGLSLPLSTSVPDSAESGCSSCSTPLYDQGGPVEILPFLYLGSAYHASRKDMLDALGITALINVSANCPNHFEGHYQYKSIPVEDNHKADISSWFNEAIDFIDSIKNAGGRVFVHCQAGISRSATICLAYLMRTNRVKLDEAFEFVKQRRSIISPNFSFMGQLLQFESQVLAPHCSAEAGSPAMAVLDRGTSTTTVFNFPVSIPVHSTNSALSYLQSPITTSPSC
# Description: In vitro PTPase activities were measured using the commercial protein tyrosine phosphatase assay kit (Upstate Biotechnology, Inc. (“UBI”)) following established procedure known to one of skill in the art. This assay measures the in vitro dephosphorylation of a synthetic phosphotyrosine peptide of the sequence Arg-Arg-Leu-Ile-Glu-Asp-Ala-Gle-T- -yr-Ala-Ala-Arg-Gly, wherein the tyrosine is phosphorylated (SEQ ID NO: 3). Briefly, 0.01 µg of GST/PTPase fusion proteins was incubated in 50 µl of Tris buffer (10 mM Tris, pH 7.4) containing different concentrations of inhibitors or chemicals (0-1,000 µg/ml) at 22° C. for 10 minutes, followed by addition of 0.2 mM of the phosphotyrosine peptide and incubation at 22° C. for 18 hours. 100 µl of Malachite Green solution was added and incubated for 5 minutes, and the absorbance at 660 nm was measured after 5 minutes.
# (§1) In vitro PTPase assays were used to determine the effects of levamisole (Sigma), pentamidine (American Pharmaceutical Partners, Inc.), and ketoconazole (Sigma) on recombinant PTPases, following established procedures (Pathak et al., J. Imumol. 167, 3391 (2001); Pathak et al., Leukemia 16, 2285 (2002), Yi et al., J. Immunol. 169, 5978 (2002)) using a synthetic phosphotyrosine peptide or DiFMUP as the substrate as detailed above in section I.A.2.
# PRL-1 = target: T2, PRL-1 (Homo sapiens, UniProt Q93096); test: In vitro PTPase assay, recombinant PRL-1; settings: 0.1-100 μg/ml
# T2 construct: made in house; host or cells: E. coli DH5a
# Excerpt: (§2) Sodium stibogluconate, suramin, sodium orthovanadate and GST fusion protein of SHP-1 have been described previously (Pathak et al., J. Imumol. 167, 3391 (2001)). Meglumine antimonate was obtained from Aventis. cDNAs of human PRL-1, PRL-2 and PRL-3 coding region were derived by RT-PCR from H9 cells (Safai, et al., Lancet 1, 1438 (1984)) and inserted in frame into the pGEX vector. cDNA of PRL-1R86 was generated by recombinant DNA technique using PRL-1 cDNA as template following established procedures (Jiao, et al., Mol. Cell. Biol. 16, 6985 (1996)). […]
# (§3) In vitro PTPase assays were used to determine the effects of compounds on recombinant PTPases, following established procedures using a synthetic phosphotyrosine peptide or DiFMUP as the substrate (Pathak et al., J. Imumol. 167, 3391 (2001)). […] PTPase activity of individual reactions was measured by adding 100 µL of malachite green solution (UBI) and then quantifying the amounts of free phosphate cleaved by the PTPase from the peptide substrate by spectrometry (OD660 nm). […] Relative PTPase activities were calculated based on the formula: (PTPase activity in the presence of an inhibitory compound/PTPase activity in the absence of the compound)× 100%. […]
# PRL-2 = target: T3, PRL-2 (Homo sapiens, UniProt Q12974); test: In vitro PTPase assay, recombinant PRL-2
# T3 construct: made in house; host or cells: E. coli DH5a
# Excerpt: as §2, §3
# PRL-3 = target: T4, PRL-3 (Homo sapiens, UniProt O75365); test: In vitro PTPase assay, recombinant PRL-3; settings: for PRL-3 PTPase activity remaining: 0.1-100 μg/ml
# T4 construct: made in house; host or cells: E. coli DH5a
# Excerpt: Sodium stibogluconate, suramin, sodium orthovanadate and GST fusion protein of SHP-1 have been described previously (Pathak et al., J. Imumol. 167, 3391 (2001)). Meglumine antimonate was obtained from Aventis. cDNAs of human PRL-1, PRL-2 and PRL-3 coding region were derived by RT-PCR from H9 cells (Safai, et al., Lancet 1, 1438 (1984)) and inserted in frame into the pGEX vector. cDNA of PRL-1R86 was generated by recombinant DNA technique using PRL-1 cDNA as template following established procedures (Jiao, et al., Mol. Cell. Biol. 16, 6985 (1996)). GST fusion proteins of the PRL phosphatases were prepared from DH5a bacteria transformed with the pGEX fusion protein constructs as described previously (Yi, et al., Mol. Cell. Biol. 12, 836 (1992)). cDNAs encoding the PRLs tagged at the N-termini with the Flag epitope (Castrucci, et al., J. Virol. 66, 4647 (1992)) were generated via recombinant DNA technique, sequenced to confirm their identities and cloned into the pBabepuro vector (Yang, et al., Blood 91, 3746 (1998)). Anti-Flag monoclonal antibody (M2, Sigma) was purchased from a commercial source. A synthetic phosphotyrosine peptide (Arg-Arg-Leu-Ile-Glu-Asp-Ala-Gle-Tyr-Al- -a-Ala-Arg-Gly (SEQ ID NO: 3), wherein the tyrosine is phosphorylated; UBI) and DiFMUP (6,8-difluoro-4-methylumbelliferyl phosphate, Molecular Probes) were purchased as substrates for PTPase assays.
# In vitro PTPase assays were used to determine the effects of compounds on recombinant PTPases, following established procedures using a synthetic phosphotyrosine peptide or DiFMUP as the substrate (Pathak et al., J. Imumol. 167, 3391 (2001)). Briefly, individual PTPases (0.1 µg/reaction) in 50 µL of PTPase buffer (50 mM Tris, pH 7.4) were incubated at 22° C. for 10 minutes or as indicated in the absence or presence of inhibitory compounds. Substrates (0.2 mM phosphotyrosine peptide) were then added and allowed to react at 22° C. for 18 hrs. PTPase activity of individual reactions was measured by adding 100 µL of malachite green solution (UBI) and then quantifying the amounts of free phosphate cleaved by the PTPase from the peptide substrate by spectrometry (OD660 nm). PTPase assays using DiFMUP as a substrate were conducted following a previously described procedure (Matter, et al., Biochem. Biophys. Res. Comm. 283, 1061 (2001)). Relative PTPase activities were calculated based on the formula: (PTPase activity in the presence of an inhibitory compound/PTPase activity in the absence of the compound)× 100%. To assess the reversibility of PTPase inhibition, GST fusion proteins of the PTPases bound on glutathione beads (Pharmacia) were pre-incubated with cold Tris buffer (50 mM Tris, pH 7.0) or Tris buffer containing the inhibitor at 4° C. for 30 minutes. The beads were then washed three times in cold Tris buffer or not washed prior to subjecting to in vitro PTPase assays.
# GSTm8 = test: In vitro PTPase assay, GSTm8; settings: 3-4 μg/ml or 10-100 μg/ml
# Excerpt: as §1
# T4 sequence (O75365 whole entry): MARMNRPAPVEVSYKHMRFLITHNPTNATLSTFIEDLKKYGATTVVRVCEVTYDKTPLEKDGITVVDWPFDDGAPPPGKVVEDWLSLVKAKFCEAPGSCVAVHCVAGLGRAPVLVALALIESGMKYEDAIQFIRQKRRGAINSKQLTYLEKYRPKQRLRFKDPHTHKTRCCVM
# T3 sequence (Q12974 whole entry): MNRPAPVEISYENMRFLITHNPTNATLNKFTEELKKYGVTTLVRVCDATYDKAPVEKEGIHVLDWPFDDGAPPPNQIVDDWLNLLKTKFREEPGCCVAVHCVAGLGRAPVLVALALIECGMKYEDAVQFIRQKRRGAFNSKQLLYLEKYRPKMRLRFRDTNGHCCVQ
# T2 sequence (Q93096 whole entry): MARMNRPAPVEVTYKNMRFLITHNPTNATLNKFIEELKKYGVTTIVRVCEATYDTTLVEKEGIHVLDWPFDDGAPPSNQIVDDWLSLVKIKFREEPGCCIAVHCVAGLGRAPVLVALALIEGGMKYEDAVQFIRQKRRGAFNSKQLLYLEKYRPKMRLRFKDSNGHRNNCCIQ
inhibition of MKP1 (MKP1),PRL-1 activity retained (PRL-1),effectiveness against PRL-2 (PRL-2),PRL-3 PTPase activity remaining (PRL-3),inhibitory activity against GSTm8 (GSTm8),SMILES,inhibitory activity against MKP1 (MKP1),inhibition of PRL-3 after washing (PRL-3),"inactivation of PRL-3 (PRL-3; 10 μg/ml, pre-incubation 30 or 60 minutes)"
substantial inhibition,60-70%,not effective,25-40%,no obvious inhibitory activity,CC(=O)N1CCN(c2ccc(OCC3COC(Cn4ccnc4)(c4ccc(Cl)cc4Cl)O3)cc2)CC1 (centres unmarked) [ketoconazole],–,–,–
substantial inhibition,70-80%,not effective,20-30%,no obvious inhibitory activity,N=C(N)c1ccc(OCCCCCOc2ccc(C(=N)N)cc2)cc1 [pentamidine],–,–,–

SMILES,inhibition of MKP1 (MKP1),PRL-1 activity retained (PRL-1),effectiveness against PRL-2 (PRL-2),PRL-3 PTPase activity remaining (PRL-3),inhibitory activity against GSTm8 (GSTm8),inhibitory activity against MKP1 (MKP1),inhibition of PRL-3 after washing (PRL-3),"inactivation of PRL-3 (PRL-3; 10 μg/ml, pre-incubation 30 or 60 minutes)"
O.O.O.O.O.O.O.O.O.O=C([O-])[C@@H]1[O][Sb]2([O-])([O][Sb]34([OH])[O][C@H]([C@H](O)CO)[C@H]([O]3)[C@H](C(=O)[O-])[O]4)[O][C@H]([C@H](O)CO)[C@@H]1[O]2.[Na+].[Na+].[Na+] [sodium stibogluconate],no obvious effects,–,–,–,–,no obvious inhibitory activity,not relieved by a washing process,nearly complete inactivation
